Reference: patent publication US4804668A, “Thiazole derivatives and medical compositions thereof” (Zenyaku Kogyo Kabushiki Kaisha, priority 1985, dated 1989)

Key:
isolated left atrium = assay: Effect on contractile force of isolated left atrium (electrically stimulated, Magnus's bath); set-up: species or system guinea pig (male Hartley, 7 weeks old); details: Corresponding Concentration 1 × 10^-4 (mol); isolated guinea pig left atrium, Krebs-Henseleit solution, stimulated at 0.5 cps, 5 msec, 20% above threshold
Method: (1) The contractile force of left atrium was tested according to the method described in Basic Lectures of Medicine Development, Volume V, Pharmacological Test Methods, Part 2, page 535 (1971). A 7-weeks-old male Hartley guinea pig (having a bodyweight of about 350 g) was killed by a blow on a head. The chest was opened and the heart was removed and placed in Krebs-Henseleit solution (prepared by adding distilled water to 6.92 g of sodium chloride, 0.35 g of calcium chloride, 0.29 g of magnesium sulfate, 0.16 g of mono-basic potassium phosphate, 2.1 g of sodium bicarbonate and 1.8 g of glucose so that the total amount was 1 l) which sufficiently bubbled with oxygen gas. Threads were tied to each tip of the left atrium. One thread was attached to a fixed pin in Magnus's bath and the other to a force-displacement transducer connected to an electric amplifier and recorder. The atrium was stimulated electrically at 0.5 cps, 5 msec and a voltage of 20% above threshold. The preparation is mounted in Krebs-Henseleit solution through which 95% oxygen gas and 5% carbon dioxide was blown. Then the samples were added.
Further, the above-mentioned tests were carried out by using following apparatuses.
Magnus's bath: supplied by Kabushiki Kaisha Natsume Seisakusho
Recorder: Model WI-680G supplied by Nippon Koden Kabushiki Kaisha
Force displacement transducer: supplied by Nippon Koden Kabushiki Kaisha
Electrical amplifier: Model AP-600G supplied by Nippon Koden Kabushiki Kaisha
Programmed electrosphygmonometer: supplied by Nippon Koden Kabushiki Kaisha

[1] = Acute toxicity (Litchfield-Wilcoxon method), intraperitoneal injection; set-up: species or system mouse (6-weeks-old male ddY); details: mouse, in vivo, ip, male ddY mice, 6 weeks old, 19-24 g
Method: (2) The acute toxicity of the compound of the formula I was determined according to the Litchfield-Wilcoxon method, J. Pharm. Exp. Ther., 96, 99 (1949) using 6-weeks-old male ddY mice (having a bodyweight of 19-24 g) while administrating the sample compound in intraperitonial injection.

| SMILES | Maximum Contractile Force (isolated left atrium) | LD50 [1] |
| --- | --- | --- |
| Cc1nc(C(N)=O)sc1-c1ccncc1 [4-Methyl-5-(4-pyridinyl)-thiazole-2-carboxamide] | 1,325 ± 132 mg | 230 mg/kg |
| COC(=O)c1nc(C)c(-c2ccncc2)s1 [Methyl 4-methyl-5-(4-pyridinyl)-thiazole-2-carboxylate] | 446 ± 91 mg |  |
| Cc1nc(C#N)sc1-c1ccncc1 [R1 = --CN, R2 = --CH3, R3 = 4-pyridinyl, 2-cyano-4-methyl-5-(4-pyridinyl)-thiazole] | 558 ± 123 mg |  |
| CNC(=O)c1nc(C)c(-c2ccncc2)s1 [R1 = --CONHCH3, R2 = --CH3, R3, N,4-Dimethyl-5-(4-pyridinyl)-thiazole-2-carboxamide] | 510 ± 45 mg |  |
